Measured values taken from US9315543B2, “Tyrosine based linkers for the releasable connection of peptides” (Bayer Intellectual Property GmbH, priority 2011, dated 2016).

Assay: Cleavage kinetics (stability) of tyrosine based linker derivatives in buffer at pH 4 and pH 7.4, HPLC
Type: physicochemical
Conditions: room temperature; for % cleaved pH 4, 0 h / % cleaved pH 4, 24 h: pH 4 solution/acetonitrile; for % cleaved pH 4, 0 h / % cleaved pH 4, 24 h / % cleaved pH 7.4, 0 h / % cleaved pH 7.4, 6 h / % cleaved pH 7.4, 24 h: HPLC peak area; for % cleaved pH 7.4, 0 h / % cleaved pH 7.4, 6 h / % cleaved pH 7.4, 24 h: pH 7.4 buffer/acetonitrile; for cleavage kinetic (in words): summary of Table 1, pH 4 and pH 7.4, up to 24 h
Description: To illustrate the different kinetics of different linkers, simple derivatives of the tyrosine based molecule were synthesized and the cleavage at different time points in buffer at pH 4 and pH 7.4 were monitored. Based on the exact composition of the tyrosine based linker structure the formation of the cyclic urea with concomittant release of the free tyrosine OH group has different cleavage kinetics. These can be easily measured in vitro and used as predictors for the in vivo kinetics.
For the kinetic studies with regard to the stability of the different linkers 0.3 mg of the dry test compound are dissolved in 0.5 ml acetonitrile. For a better dilution the sample is sonified for about 10 seconds. Then 1.0 ml of the buffer solutions are added and the samples are sonified again.
Chemical composition of the solution/buffer which are used: • pH 4: 1 liter of deionized water was adjusted to pH 4 with 1N hydrochloric acid • pH 7.4: 90 g sodium chloride, 13.61 g potassium dihydrogene phosphate and 83.35 g 1 M sodium hydroxide solution were dissolved in 1 liter of deionized water. This solution was diluted with water at the rate of 1:10.
The test compound concentration is analysed by HPLC every hour during 24 hours at room temperature. The quantity of the test compound is determined by the peak areas.
HPLC method: Agilent 1100 with DAD (G1315B), binary pump (g1312A), autosampler (G1329A), column thermostat (G1330B), Column: Kromasil 100 C18/250 mm×4 mm/5 μm, Column temperature: 30° C., Eluent A: water+5 ml perchloric acid/1, Eluent B: acetonitrile, Gradient: 0-1.0 min 90% A, 10% B; 1.0-20.0 min 10% A, 90% B; 20.0-21.0 min 10% A, 90% B; 21.0-23.0 min 90% A, 10% B; 23.0-25.0 min 90% A, 10% B; Flow rate: 1.5 ml/min, Detection: 210 nm, Injection volume: 10 μl.

Compound | % cleaved pH 4, 0 h | % cleaved pH 4, 24 h | % cleaved pH 7.4, 0 h | % cleaved pH 7.4, 6 h | % cleaved pH 7.4, 24 h | cleavage kinetic (in words)
NC(=O)[C@H](CSC1CC(=O)N(Cc2ccccc2)C1=O)NC(=O)[C@@H](N)CCNC(=O)Oc1ccc(C[C@H](N)C(=O)Nc2ccccc2)cc1 (stereo partly drawn) [Example 1C, O-{[(3S)-3-Amino-4-({(2R)-1-amino-3-[(1-benzyl-2,5-dioxopyrrolidin-3-yl)sulfanyl]-1-oxopropan-2-yl}amino)-4-oxobutyl]carbamoyl}-N-phenyl-L-tyrosinamide] | 0% | 1% | 0% | 7% | 21% | –
NC(=O)[C@H](CSC1CC(=O)N(Cc2ccccc2)C1=O)NC(=O)[C@@H](N)CCCNC(=O)Oc1ccc(C[C@H](N)C(=O)Nc2ccccc2)cc1 (stereo partly shown) [Example 3C] | 0% | 0% | 0% | 2% | 11% | cleaved slowly
NCCC[C@H](NC(=O)Oc1ccc(C[C@H](N)C(=O)Nc2ccccc2)cc1)C(=O)N[C@@H](CSC1CC(=O)N(Cc2ccccc2)C1=O)C(N)=O (stereo partly shown) [Example 4C] | 0% | 0% | 0% | 23% | 65% | cleaved quickly
NCC[C@H](NC(=O)Oc1ccc(C[C@H](N)C(=O)Nc2ccccc2)cc1)C(=O)N[C@@H](CSC1CC(=O)N(Cc2ccccc2)C1=O)C(N)=O (stereo partly shown) [Example 5C] | 0% | 0% | 0% | 75% | 100% | cleaved quickly
N[C@@H](CCNC(=O)Oc1ccc(C[C@H](N)C(=O)Nc2ccccc2)cc1)C(=O)NCCSC1CC(=O)N(Cc2ccccc2)C1=O (stereo partly shown) [Example 6C] | 0% | 0% | 0% | 6% | 20% | –
NC(=O)CNC(=O)[C@H](CSC1CC(=O)N(Cc2ccccc2)C1=O)NC(=O)[C@@H](N)CCNC(=O)Oc1ccc(C[C@H](N)C(=O)Nc2ccccc2)cc1 (stereo partly shown) [Example 7C] | 0% | 0% | 0% | 6% | 23% | –
NC(=O)[C@H](CSC1CC(=O)N(Cc2ccccc2)C1=O)NC(=O)CNC(=O)[C@@H](N)CCNC(=O)Oc1ccc(C[C@H](N)C(=O)Nc2ccccc2)cc1 (stereo partly shown) [Example 8C] | 0% | 0% | 0% | 6% | 23% | –
NC(=O)[C@H](CSC1CC(=O)N(Cc2ccccc2)C1=O)NC(=O)CCCCCNC(=O)[C@@H](N)CCNC(=O)Oc1ccc(C[C@H](N)C(=O)Nc2ccccc2)cc1 (stereo partly shown) [Example 9C] | 0% | 0% | 0% | 7% | 25% | –
N[C@@H](CCNC(=O)Oc1ccc(C[C@H](N)C(=O)Nc2ccccc2)cc1)C(=O)NCCOCCOCCOCCn1cc(-c2ccccc2)nn1 [Example 10Cb, O-{[(14S)-14-Amino-13-oxo-1-(4-phenyl-1H-1,2,3-triazol-1-yl)-3,6,9-trioxa-12-azahexadecan-16-yl]carbamoyl}-N-phenyl-L-tyrosinamide] | 0% | 0% | 0% | 4% | 14% | cleaved slowly
NC[C@H](NC(=O)Oc1ccc(C[C@H](N)C(=O)Nc2ccccc2)cc1)C(=O)N[C@@H](CSC1CC(=O)N(Cc2ccccc2)C1=O)C(N)=O (stereo partly shown) [Example 11C] | 0% | 19% | 0% | 100% | 100% | cleaved very quickly, even at pH4
N[C@@H](Cc1ccc(OC(=O)NCC[C@H](N)C(=O)N[C@@H](CSC2CC(=O)N(Cc3ccccc3)C2=O)C(=O)Nc2ccccc2)cc1)C(=O)Nc1ccccc1 (stereo partly shown) [Example 12C] | 0% | 0% | 0% | 29% | 76% | cleaved quickly
